# Results as given in patent EP0610377B1, “TRI-SUBSTITUTED TETRAHYDROFURAN ANTIFUNGALS” (SCHERING CORPORATION, priority 1991, dated 1993).
# What was measured:
# Assay type in all cases: in vivo
# [1] = tested on: Aspergillus flavus; assay: Aspergillus flavus pulmonary infection model in compromised mice, oral treatment; details: for %SURVIVAL / %ANIMALS NEG: 18 days post infection; for %SURVIVAL: compromised CF-1 mice; for %ANIMALS NEG: negative = <10 colonies
# Description: The in vivo oral antifungal activity of the compounds of Example 23-26 were compared to those of itraconazole, fluconazole and saperconazole in an Aspergillus pulmonary infection model in mice. The procedure of David Loebenberg et al. entitled "Sch 42427, The Active Enantiomer of Antifungal agent Sch 39304: In Vitro and In Vivo Activity" Antimicrobial Agents and Chemotherapy (1992), 36 498-501 was used. The Aspergillus flavus pulmonary model was run in the following manner Male, CF-1 mice weighing 20 grams were compromised with cortisone acetate (100 mg/kg), administered subcutaneously, once daily for 3 days. In addition, to prevent bacterial disease, tetracycline HCL (300 mg/1) was added to the drinking water and given ad libitum. On day 2 of compromising, mice were infected in an inhalation chamber, first described by Piggot and Emmons in 1960 and modified by us. The chamber is a 1 liter pyrex, thick-walled flask with 8 tubular side-arms that extend into the flask. Each side-arm is a pyrex tube of 14 cm length, constricted to a 1 cm opening inside the flask. The bottom of the flask was covered with a malt extract agar medium on which a sporulating culture of A. flavus ATCC 24133 was grown for 13 days at room temperature. The top of the flask was closed with a #10 stopper through which passed a glass tube attached by rubber tubing to a 60 mL syringe. Mice were placed in each of the side arms and pushed to the bottoms so that their nares extended beyond the open end of the tube and over the agar. Cotton plugs were then inserted behind the mice to hold them in place. By pumping the 60 mL syringe twice, air was forced over the culture and produced a cloud of spores. Mice were exposed to the spore cloud for one minute. Within 15-30 minutes after exposure, a number of mice were sacrificed and lung tissue samples homogenized for culture to determine the number of inhaled conidia. Oral treatment began 24 h post-infection with doses of 5 to 250 mg of drug/kg in ethanol; vehicle (115 ml of Emulphor EL-719P, GAF, Wayne, NJ; and 5 ml of 20% w/v lactic acid per liter of water), 10:90 v/v, once daily for 4 days.
# The procedure of Example 31 was used to compare the in vivo oral antifungal activity of (±)-5R/S-(cis)-4-[4-[4-[4-[[5-(2,4-difluorophenyl)-5-(1H-1,2,4-triazol-1-ylmethyl) tetrahydrofuran-3-yl]methoxy-phenyl-1-piperazinyl]phenyl]-2,4-dihydro-2[(R/S)-(1-methylpropyl)]-3H-1,2,4-triazol-3-one with (±)-2R/S-(cis)-1-[4-[[2-(2,4-difluorophenyl)-2-(1H-1,2,4-triazol-1-ylmethyl) tetrahydro-4-furanyl]methoxy]phenyl]-4-(1-methylethyl)piperazine of Example 68 of USP 5,039,676 in an Aspergillus pulmonary infection model described in Example 31. […]
# The procedures of Examples 31 and 34 were used.
# [2] = tested on: Aspergillus flavus; assay: as above; details: for Percent Survival After 11 Days / PERCENT SURVIVAL AFTER 5 DAYS (5D): CF-1 mice; for PERCENT SURVIVAL AFTER 5 DAYS (5D): head prints 50 mg/kg (third dose column, c3), in PEG-200 daily for 4 days
# [3] = tested on: C. albicans C-43; assay: Candida systemic model in CF1 mice infected IV with C. albicans C-43, oral treatment; details: for %SURVIVAL: day 4 post-infection; for CFUs (GM): day 4
# Description: The compounds of Examples 23-26 and itraconazole, fluconazole, and saperconazole were tested for in vivo oral antifungal activity in a Candida systemic model using CF1 male mice , average weight 20 g, Harlan Sprague Dawley, Inc., Indianapolis, Ind. infected by IV injection into the tail vein of C. albicans C-43 (5 million CFUs). […] Oral efficacy was measured after four (4) days by percent survival and by the number of organisms remaining in the kidneys i.e., the Colony Forming Units (CFUs). The mice were sacrificed and the kidneys of individual mice were homogenized in sterile saline, diluted and spread onto Mycosel agar. Colony counts were determined after 48 hours at 37°C. For calculation of geometric means, mice that died during the experiment were considered to have 10^9 CFUs/kidneys (based on numerous previous experiments).
# [4] = tested on: C. albicans C-65; assay: Candida systemic model in normal and compromised CF1 mice infected with C. albicans C-65, oral treatment; details: for % S (Percent Survival): day 4 post-infection; for CFUs (GM): day 4, geometric mean of the logarithms of CFU in the kidneys
# Description: The compounds of Examples 23-26 and itraconazole, fluconazole, and saperconazole were tested for in vivo oral antifungal activity in a Candida systemic model using CF1 male mice , average weight 20 g, Harlan Sprague Dawley, Inc., Indianapolis, Ind. infected by IV injection into the tail vein of C. albicans C-43 (5 million CFUs). The drugs were dissolved in polyethylene glycol-200 (PEG-200) and tested by orally administering 50, 25 and 10 mpk of each drug 4 hours post infection and once daily for 3 more days. Oral efficacy was measured after four (4) days by percent survival and by the number of organisms remaining in the kidneys i.e., the Colony Forming Units (CFUs). The mice were sacrificed and the kidneys of individual mice were homogenized in sterile saline, diluted and spread onto Mycosel agar. Colony counts were determined after 48 hours at 37°C. For calculation of geometric means, mice that died during the experiment were considered to have 10^9 CFUs/kidneys (based on numerous previous experiments).
# The compounds of Examples 23-24 and itraconazole, fluconazole, were tested for in vivo oral antifungal anctivity in a Candida systemic model using normal and compromised CF1 mice infected with C. albicans C-65 (5 million CFUs). The procedure of Example 33 was followed. The drugs were dissolved in polyethylene glycol-200 ("PEG-200) at room temperature and tested by orally administering 100, 50, 25, 10 and 1 mpk of each drug. Oral efficacy was measured by percent survival and by the number of organisms remaining in the kidneys (CFUs) after four days. […] The pharmaceutical composition of the preferred compound of formula IIb of Eample 24 in hydroxypropyl beta cyclodextrin ("HPβCD") having 7.4 hydroxypropyl groups per HPβCD (obtained from Pharmatec, Inc., Alachua, FL 32615) was prepared by admixing the appropriate amount of the compound IIa with a 40% (w/v) solution of HPβCD (4 g of HPβCD per 10 mL of purified water). Gentle heating was used to form a clear solution. For the 10 mpk dose, 12 mg of Ha was added to 6 mL of a 40% w/v solution of HPβCD. For dilutions, sterile water was added to the solution with mixing. The pharmaceutical composition of itraconazole and the Pharmatec HPβCD described above was prepared as follows. Propylene glycol (10 mL) was admixed with 0.95 mL of concentrated HCI at 40°-45°C with stirring. Itraconazole (2.5 g) was added thereto and stirring was continued until homogeneous. The mixture so formed was cooled to 20° to 30°C and admixed with a solution of 60 g of HPβCD in 40 mL of purified water to form a clear solution. The pH was adjusted to a value of 1.9-2.1 with 10N NaOH and sufficient purified water added (with mixing) to a final volume of 100 mL. For dilutions, sterile water was added to the itraconazole - HPβCD.
# [5] = 50 mg/kg PO in PEG-200, OD for 4 days
# [6] = 100 mg/kg PO in PEG-200, OD for 4 days
# [7] = 200 mg/kg PO in PEG-200, OD for 4 days
# [8] = 33 mg/kg PO once a day for 4 days
# [9] = 66 mg/kg PO once a day for 4 days
# [10] = 100 mg/kg PO once a day for 4 days
# [11] = 50 MPK PO in PEG-200, 1 a day x 4 days
# [12] = 50 MPK PO in PEG-200, geometric mean of the logarithms of CFU remaining in the kidneys (dead mice counted as 10^9)
structure (smiles),measurement,setting,value
"CC(C)N1CCN(c2ccc(OC[C@@H]3CO[C@@](Cn4cncn4)(c4ccc(F)cc4F)C3)cc2)CC1 (racemic) [Example 68 of US Patent 5,039,676, (±)-2R/S-(cis)-1-[4-[[2-(2,4-difluorophenyl)-2-(1H-1,2,4-triazol-1-ylmethyl)tetrahydro-4-furanyl]methoxy]phenyl]-4-(1-methylethyl)piperazine, reference compound]",oral activity in the Aspergillus pulmonary mouse model,"[1]; PO, result in words (active / inactive)",inactive
same,Percent Survival After 11 Days,[2]; [5],0
same,Percent Survival After 11 Days,[2]; [6],0
same,Percent Survival After 11 Days,[2]; [7],0
"CC[C@H](C)n1ncn(-c2ccc(N3CCN(c4ccc(OC[C@H]5CO[C@](Cn6cncn6)(c6ccc(F)cc6F)C5)cc4)CC3)cc2)c1=O [Example 25, (+)-[(5S)-cis]-4-[4-[4-[4-[[5-(2,4-Difluorophenyl)-5-(1H-1,2,4-triazol-1-ylmethyl)tetrahydrofuran-3-yl]methoxy]phenyl]-1-piperazinyl]phenyl]-2,4-dihydro-2-[(1S)-(1-methylpropyl)]-3H-1,2,4-triazol-3-one]",%SURVIVAL,[1]; [8],0%
same,%ANIMALS NEG,[1]; [8],0%
same,%SURVIVAL,[1]; [9],0%
same,%ANIMALS NEG,[1]; [9],0%
same,%SURVIVAL,[1]; [10],10%
same,%ANIMALS NEG,[1]; [10],0%
same,%SURVIVAL,"[3]; 10 MPK PO in PEG-200, 1 a day x 4 days",0%
same,CFUs (GM),"[3]; 10 MPK PO in PEG-200, geometric mean of the logarithms of CFU remaining in the kidneys (dead mice counted as 10^9)",9.00
same,%SURVIVAL,"[3]; 25 MPK PO in PEG-200, 1 a day x 4 days",0%
same,CFUs (GM),"[3]; 25 MPK PO in PEG-200, geometric mean of the logarithms of CFU remaining in the kidneys (dead mice counted as 10^9)",9.00
same,%SURVIVAL,[3]; [11],0%
same,CFUs (GM),[3]; [12],9.00
same,%SURVIVAL,"[2]; 33 mg/kg PO [3RX/DAY] for 4 days, 18 days post infection, compromised CF-1 mice",20%
same,%ANIMALS NEG,"[2]; 33 mg/kg PO [3RX/DAY] for 4 days, 18 days post infection, negative = <10 colonies",10%
"CCC(C)n1ncn(-c2ccc(N3CCN(c4ccc(OC[C@H]5CO[C@](Cn6cncn6)(c6ccc(F)cc6F)O5)cc4)CC3)cc2)c1=O (some centres unmarked) [Saperconazole, reference compound]",%SURVIVAL,[1]; [10],0%
same,%ANIMALS NEG,[1]; [10],0%
same,%SURVIVAL,[3]; [11],20%
same,CFUs (GM),[3]; [12],8.20
same,PERCENT SURVIVAL AFTER 5 DAYS (5D),[2],50
"OC(Cn1cncn1)(Cn1cncn1)c1ccc(F)cc1F [Fluconazole, reference compound]",%SURVIVAL,[1]; [10],10%
same,%ANIMALS NEG,[1]; [10],0%
same,%SURVIVAL,"[3]; 1 MPK PO in ETOH/Mon, 1 a day x 4 days",70%
same,CFUs (GM),"[3]; 1 MPK PO in ETOH/Mon, geometric mean of the logarithms of CFU remaining in the kidneys",6.58
same,%SURVIVAL,"[3]; 10 MPK PO in ETOH/Mon, 1 a day x 4 days",90%
same,CFUs (GM),"[3]; 10 MPK PO in ETOH/Mon, geometric mean of the logarithms of CFU remaining in the kidneys",5.68
same,% S (Percent Survival),"[4]; 600 Rads Mice (compromised), 10 MPK PO in PEG-200, 1/day x 4 days",20%
same,CFUs (GM),"[4]; 600 Rads Mice (compromised), 10 MPK PO in PEG-200",8.01
same,% S (Percent Survival),"[4]; 600 Rads Mice (compromised), 25 MPK PO in PEG-200, 1/day x 4 days",50%
same,CFUs (GM),"[4]; 600 Rads Mice (compromised), 25 MPK PO in PEG-200",6.91
same,% S (Percent Survival),"[4]; Normal Mice, 1 MPK PO in PEG-200, 1/day x 4 days",60%
same,CFUs (GM),"[4]; Normal Mice, 1 MPK PO in PEG-200",5.81
same,% S (Percent Survival),"[4]; Normal Mice, 10 MPK PO in PEG-200, 1/day x 4 days",80%
same,CFUs (GM),"[4]; Normal Mice, 10 MPK PO in PEG-200",5.35
"CCC(C)n1ncn(-c2ccc(N3CCN(c4ccc(OC[C@@H]5CO[C@@](Cn6cncn6)(c6ccc(F)cc6F)C5)cc4)CC3)cc2)c1=O (mixture of isomers) [Compound 1 of Table III of Examples 34, (±)-5R/S-(cis)-4-[4-[4-[4-[[5-(2,4-difluorophenyl)-5-(1H-1,2,4-triazol-1-ylmethyl)tetrahydrofuran-3-yl]methoxyphenyl-1-piperazinyl]phenyl]-2,4-dihydro-2[(RS)-(1-methylpropyl)]-3H-1,2,4-triazol-3-one]",Percent Survival After 11 Days,[2]; [5],16.7
same,Percent Survival After 11 Days,[2]; [6],41.7
same,Percent Survival After 11 Days,[2]; [7],50.0
same,PERCENT SURVIVAL AFTER 5 DAYS (5D),[2],50
